Assay results from patent US20170340742A1, “A METHOD FOR DELIVERING A SUBSTANCE INTO CELLS” (TECHNISCHE UNIVERSITÄT DARMSTADT, priority 2014, published 2017).
No end group written: not given here. Ahx = NCCCCCC(=O)O

Test system: living cells
Experiment: Comparative test of cellular penetration of cell-penetrating compounds with and without mediator compounds at low and high pH
Format: cell-based
Design: key: −: no uptake detectable; +: low efficiency of uptake detectable; ++: moderate efficiency of uptake detectable; +++: strong de efficiency of uptake detectable; ++++: very strong efficiency of uptake detectable
Conditions: compound 2 μM, 30 min
Procedure: A comparative test of cellular penetration of different cell-penetrating compounds was performed in the presence and absence of different mediator compounds at low and high pH. The cell-penetrating compounds (2 μM) and the mediator compounds (6 μM) were mixed in Hepes buffers at low pH (6.5) and high pH (8.5).
The cell media (DMEM) was removed and exchanged by these solutions and incubated for 30 min. Then the solutions were removed and the cells were embedded back in cell culture media (DMEM) and imaged. The efficiency of uptake in the different conditions was determined.
The determined efficacy is depicted with increasing efficacy from “−” no uptake detectable, “+” low efficiency of uptake detectable, “++” moderate efficiency of uptake detectable, “+++” strong de efficiency of uptake detectable, “++++” very strong efficiency of uptake detectable.

Measured: Efficiency of uptake

TAMRA-Ahx-LGQQQPFPPQQPY ({TAMRA-Ahx}-LGQQQPFPPQQPY)
−: Mediator 1: Curcumin 6 μM, high pH of 8.5 | Mediator 1: Curcumin 6 μM, low pH of 6.5 | Mediator 2: Levothyroxine 6 μM, high pH of 8.5 | Mediator 2: Levothyroxine 6 μM, low pH of 6.5 | no mediator, high pH of 8.5 | no mediator, low pH of 6.5
